One assay has as its system 3D7^Cas9 pfmdr1 G182S. In kind it is cell-based, Plasmodium falciparum. The note with it: 3D7^Cas9 pfmdr1 G182S vs 3D7^WT. As to the method:
^[a] 72-h [^3H] hypoxanthhine incorporation assay; Data is expressed as mean±s.d.. The assay was performed in three independent biological experiments, each in biological duplicates.
P. falciparum asexual blood stage parasites were cultured in human red blood cells (RBC, Blutspende SRK, Zurich) at a hematocrit of 5% in RPMI 1640 medium. The RPMI 1640 medium (ThermoFisher Scientific #51800−043) was supplemented with the following: 24 mM NaHCO3 (pH 7.3, Sigma-Aldrich #31437−500G-R), 25 mM Hepes (Sigma-Aldrich #H4034−500G), 0.36 mM hypoxanthine (Sigma-Aldrich # H9377−25G), 100 µg mL^-1 neomycin (Sigma-Aldrich #N6386−100G) and 0.5% Albumax II (Thermo Fisher #11021−045). Additionally, 2 mM choline chloride (279 mg/L, Sigma-Aldrich #C7527−100G) was added to the culture to block the induction of sexual commitment as described. ^[31^] The RPMI 1640 medium and components were dissolved in water (Milli-Q purified), stirred for at least 3 h, and then sterile filtered (0.22 μm pore size) with a bottle top filter (Corning # 431118). Parasite cultures were maintained in an atmosphere of 3% O2, 4% CO2, and 93% N2 in air-tight chambers at 37 °C. The [^3H]-hypoxanthine incorporation assay was used to test compound activity in the specific parasite lines as described.^[32^] Briefly, compounds were dissolved in DMSO (10 mM) and diluted in a hypoxanthine-free culture medium. A limiting dilution was performed over a 64-fold range (6-step twofold dilution) in a 96-well plate in duplicates. For every starting concentration, a limiting dilution was performed over a 64-fold range (6-step twofold dilution) in a 96-well plate in two biological duplicates. Parasites were added at 100 µL to each well containing the compound to obtain a final parasitemia of 0.3% and haematocrit of 1.25%. The plates were incubated for 48 h before 0.25 µCi of [^3H]-hypoxanthine was added per well for an additional 24 h. Parasites were harvested on a glass-fiber filter with a Microbeta FilterMate cell harvester (Perkin Elmer, Waltham, USA) and radioactivity was counted using a MicroBeta2 liquid scintillation counter (Perkin Elmer, Waltham, US). The results were recorded, processed by subtraction of the mean background signal obtained from the uninfected RBC controls and expressed as percentage of untreated controls. The fifty percent inhibitory concentration (IC50) was calculated by using nonlinear, four parameter (variable slope) curve fitting as described ^[33^] after importing into GraphPad Prism (version 8.3.0).
The P. falciparum 3D7 wild type parasites in the ring stage were transfected as described.^[20] Infected RBCs collected from a 5 ml culture of synchronous ring stage parasites (5-6% parasitemia at ) were added to 250 µl of packed RBCs and were co-transfected with 50µg of Cas9 and 50 µg of donor plasmids using a Bio-Rad Gene Pulser Xcell Electroporation System (single exponential pulse, 310 V, 250 µF). 24 hours post-transfection, 5 nM WR99210 (MedChemExpress #HY-116387) was added to the culture medium for six days to select for gene-edited parasites, and henceforth parasites were maintained in normal culture medium until a stably propagating parasite population was obtained. After ~4 weeks post-transfection, stably propagating parasite population were obtained. The transgenic parasite line (3D7^pfmdr1 G182S) was cloned out using an established plaque assays via limiting dilution.^[35^] […]

In assay [1] the test system is Uncharacterized protein (W7K0G9). The assay is described as follows: iSPP profiling, P. falciparum lysate. It is filed as binding, Plasmodium falciparum. The note with it: 100 µM compound 34. How it is done: (§1) P. falciparum NF54 lysates were extracted as described in ^[26^] . The parasite asynchronous culture was extracted once 3-5% parasitemia was reached. Saponin lysis was done as described in 2.2.10. Once the parasite pellet was obtained, 2.5 volumes of ice-cold lysis buffer (50 mM Tris/HCl pH 7.5 (Avantor), 5% glycerol (Sigma-Aldrich), 150 mM NaCl (Carl Roth), 1.5 mM MgCl2 (Sigma-Aldrich), 1 mM DTT (Carl Roth), 0.8% IGEPAL CA-630 (Sigma-Aldrich), 1X Halt Protease and Phosphatase Inhibitor-Cocktails EDTA-free (Thermo Fisher Scientific)) was added to the parasite pellet. The lysate solution was subjected to three cycles of flash freeze-thaw with liquid nitrogen and ddH2O at RT. The lysates were centrifuged at 20,000 g for 20 minutes at 4 °C. The soluble protein fraction (supernatant) was collected and the protein content was quantified using the BCA assay (Pierce™ BCA Protein Assay Kit, Thermo Fisher Scientific). The lysate was stored at -80 °C until further use.
(§2) The P. falciparum lysate was thawed on ice and diluted to 0.8 mg/mL. The lysate was aliquoted, and each aliquot was incubated with either a vehicle control (DMSO), 34 (dissolved in DMSO), or varying concentrations of 31 (dissolved in DMSO) at 0.01 µM, 0.1 µM, 10 µM, 50 µM, and 100 µM. Subsequently, the samples were incubated at room temperature for 30 minutes using a rotating mixer. After distribution into a 96-well plate, the samples were treated with increasing concentrations of A.E.A. (v/v) ranging from 14% to 28% (14, 16, 18, 20, 22, 24, 26, and 28%). Following a 20-minute incubation at 37°C with shaking at 750 rpm, the samples were centrifuged at 4400 g for 35 minutes to remove precipitated proteins. The soluble fractions were then pooled in equal volumes into a single sample using the Bravo Automated Liquid Handling Platform. The pooled samples were subsequently prepared for LC-MS/MS analysis.
(§3) The raw LFQ-DIA intensity values of biological replicates across all conditions were normalized to the median abundance using Excel. The normalized values were then log2 transformed in Perseus (v2.0.10.0).^[58^] Missing values were imputed from a normal distribution (width 0.3, down shift 1.5), and p-values were obtained using a two-sample t-test over replicates with a permutation-based false discovery rate correction (FDR 0.05). Volcano plots were generated in RStudio using the EnhancedVolcano package (v. 1.20.0), ^[59^] plotting proteins by statistical significance (y-axis: –Log10 p-value) versus the magnitude of change (x-axis: log2 fold change of protein intensities for each compound condition relative to the vehicle control). The heatmap was generated in Perseus (v2.0.10.0). Dose-dependent curves were generated using normalized protein intensity values, expressed as a ratio to the vehicle control. Plots were created in GraphPad Prism (v8.3.0) using a nonlinear regression model.

Assay [2] has as its system Uncharacterized protein (W7KAL3). The assay is described as follows: iSPP profiling, P. falciparum lysate. In kind it is binding, Plasmodium falciparum. The conditions noted are these: 100 µM compound 34. How it is done: as §1, §2, §3
For assay [3], the system named is 3-hydroxyacyl-[acyl-carrier-protein] dehydratase (W7K0B9). The assay is described as follows: iSPP profiling, P. falciparum lysate. The conditions noted are these: 100 µM compound 34. In kind it is binding. As to the method:
as §1
as §2, with “The pooled samples were subsequently prepared for LC-MS/MS analysis.” left out
(§4) The raw LFQ-DIA intensity values of biological replicates across all conditions were normalized to the median abundance using Excel. […] Dose-dependent curves were generated using normalized protein intensity values, expressed as a ratio to the vehicle control. […]

For assay [4], the target named is Aquaglyceroporin (W7K5E1) (Plasmodium falciparum, UniProt Q8II36). The assay is described as follows: iSPP profiling, P. falciparum lysate. In kind it is binding. The note with it: 100 µM compound 34. How it is done: as §1
Chain of Aquaglyceroporin (W7K5E1) (Q8II36 whole entry, one chain of several): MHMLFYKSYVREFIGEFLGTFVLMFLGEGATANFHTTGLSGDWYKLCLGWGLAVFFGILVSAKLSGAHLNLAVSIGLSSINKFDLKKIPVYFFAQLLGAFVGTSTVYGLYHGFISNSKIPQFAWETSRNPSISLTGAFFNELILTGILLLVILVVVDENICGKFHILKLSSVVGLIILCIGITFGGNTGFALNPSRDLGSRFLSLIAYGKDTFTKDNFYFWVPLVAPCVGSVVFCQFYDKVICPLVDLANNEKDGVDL
as §2, with “The pooled samples were subsequently prepared for LC-MS/MS analysis.” left out
as §4

Assay [5] has as its target Phosphatidylinositol 4-kinase (W7K9N9) (Plasmodium falciparum, UniProt W7K9N9). The assay is described as follows: iSPP profiling, P. falciparum lysate. It is filed as binding. The conditions noted are these: 100 µM compound 34. As to the method:
as §1
as §2, with “The pooled samples were subsequently prepared for LC-MS/MS analysis.” left out
as §4

“And” between values parts separate entries of the source, which are not always exact repeats. Identical values can stand only once.

Chain of Phosphatidylinositol 4-kinase (W7K9N9) (W7K9N9 entry or part of it): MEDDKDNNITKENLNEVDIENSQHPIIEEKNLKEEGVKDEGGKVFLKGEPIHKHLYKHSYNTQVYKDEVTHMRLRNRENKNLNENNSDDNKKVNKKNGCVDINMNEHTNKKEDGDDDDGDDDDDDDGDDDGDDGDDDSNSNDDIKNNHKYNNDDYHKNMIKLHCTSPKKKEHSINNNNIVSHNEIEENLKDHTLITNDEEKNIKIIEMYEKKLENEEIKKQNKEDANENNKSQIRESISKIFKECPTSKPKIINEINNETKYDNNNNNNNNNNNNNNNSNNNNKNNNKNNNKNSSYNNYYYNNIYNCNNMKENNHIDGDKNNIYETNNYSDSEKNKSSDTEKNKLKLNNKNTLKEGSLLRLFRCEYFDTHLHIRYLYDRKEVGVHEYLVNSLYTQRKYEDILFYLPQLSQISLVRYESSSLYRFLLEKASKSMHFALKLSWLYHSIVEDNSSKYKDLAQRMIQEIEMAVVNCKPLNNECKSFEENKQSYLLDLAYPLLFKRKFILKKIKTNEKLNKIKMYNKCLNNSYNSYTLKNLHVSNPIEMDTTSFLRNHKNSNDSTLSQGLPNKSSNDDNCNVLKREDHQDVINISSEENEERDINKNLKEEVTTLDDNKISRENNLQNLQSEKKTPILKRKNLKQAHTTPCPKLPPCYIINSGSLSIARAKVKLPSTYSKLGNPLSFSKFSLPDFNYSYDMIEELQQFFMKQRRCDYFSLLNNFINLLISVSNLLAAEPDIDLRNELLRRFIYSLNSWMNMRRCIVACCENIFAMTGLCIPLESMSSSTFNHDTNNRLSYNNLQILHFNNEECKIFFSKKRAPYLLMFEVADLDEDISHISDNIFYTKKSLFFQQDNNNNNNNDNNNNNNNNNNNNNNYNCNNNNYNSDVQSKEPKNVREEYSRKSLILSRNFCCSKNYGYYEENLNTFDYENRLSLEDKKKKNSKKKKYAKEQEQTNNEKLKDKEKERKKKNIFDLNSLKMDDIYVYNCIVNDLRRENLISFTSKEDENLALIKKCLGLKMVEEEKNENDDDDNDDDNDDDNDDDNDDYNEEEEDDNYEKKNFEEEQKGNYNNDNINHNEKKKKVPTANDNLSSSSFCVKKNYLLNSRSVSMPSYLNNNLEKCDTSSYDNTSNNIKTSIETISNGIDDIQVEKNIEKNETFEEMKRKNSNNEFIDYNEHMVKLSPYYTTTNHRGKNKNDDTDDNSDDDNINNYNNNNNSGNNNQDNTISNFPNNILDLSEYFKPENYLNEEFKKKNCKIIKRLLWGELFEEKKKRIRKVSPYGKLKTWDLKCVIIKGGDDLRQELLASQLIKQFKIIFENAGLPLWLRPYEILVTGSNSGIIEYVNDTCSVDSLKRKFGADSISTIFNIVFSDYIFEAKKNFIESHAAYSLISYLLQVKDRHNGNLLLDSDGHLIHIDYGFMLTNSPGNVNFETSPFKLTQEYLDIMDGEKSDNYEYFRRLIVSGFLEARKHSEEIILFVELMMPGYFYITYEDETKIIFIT

As to `CN1CCN(Cc2ccc(O)c(NC(=O)c3cccc(Oc4cc(C(F)(F)F)ccn4)c3)c2)CC1` [Compound 31, N-(2-hydroxy-5-((4-methylpiperazin-1-yl)methyl)phenyl)-3-((4-(trifluoromethyl)pyridin-2-yl)oxy)benzamide], the “IC50 fold shift relative to 3D7^WT strain” value with 3D7^Cas9 pfmdr1 G182S is 7 and 6.6.
As for `O=C(Nc1cc(CN2CCOCC2)ccc1F)c1cccc(Oc2cc(C(F)(F)F)ccn2)c1` [Compound 34, N-(2-Fluoro-5-(morpholinomethyl)phenyl)-3-((4-(trifluoromethyl)pyridin-2-yl)oxy)benzamide], the log2FC is listed as -0.3881 in assay [1]; -0.4853 in assay [2]; 0.431 in assay [3]; 0.4199 in assay [4]; 0.5024 in assay [5].

These data come from paper PMC12668308, “A Novel Antimalarial Agent that Inhibits Protein Synthesis in Plasmodium falciparum” (Angewandte Chemie (International Ed. in English), 2025).
